These compounds were tested on Glycine max (assay: Crop compatibility pre-emergence (greenhouse pot trial)). Conditions: application rate 20 g/ha, effect vs untreated controls.
Type: in vivo
How it was run: (§1)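 Seeds sown in pots and covered with soil; compounds formulated as WP or EC applied pre-emergence to the soil surface as aqueous suspension/emulsion with 0.5% additive at 600 L/ha water. Plants kept in greenhouse; crop damage scored visually after about 3 weeks as % versus untreated controls (0% = like control, 100% = dead).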

Glycine max (Efficacy in %) [%] | Structure (SMILES)
0 | Cn1c(C(F)(F)F)cc(=O)n(-c2cc(SCC(C)(C)C(=O)OCC3CCCO3)c(Cl)cc2F)c1=O (stereo not shown) [I.48-71]

These compounds were tested on Zea mays in the same assay as above. Conditions: application rate 320 g/ha, effect vs untreated controls.
Type: in vivo
How it was run: as §1

Zea mays (Efficacy in %) [%] | Structure (SMILES)
20 | Cn1c(C(F)(F)F)cc(=O)n(-c2cc(SCC(C)(C)C(=O)OCC3CCCO3)c(Cl)cc2F)c1=O (stereo not shown) [I.48-71]

What follows are compounds tested on Amaranthus retroflexus (assay: Herbicidal action pre-emergence (greenhouse pot trial)). Conditions: application rate 320 g/ha, scored after about 3 weeks.
Type: in vivo
How it was run: (§2)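 Application rates of 320 g/ha or lower were used, with compounds delivered onto covering soil before weed emergence. After roughly three weeks in the greenhouse, damage was judged by eye as a percentage versus untreated plants.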

Structure (SMILES) | Amaranthus retroflexus (Efficacy in %) [%]
Cn1c(C(F)(F)F)cc(=O)n(-c2cc(SCC(C)(C)C(=O)OCC3CCCO3)c(Cl)cc2F)c1=O (stereo not shown) [I.48-71] | 100

Each compound was assayed on Setaria viridis in the same assay as above. Conditions: application rate 320 g/ha, scored after about 3 weeks.
Type: in vivo
How it was run: as §2

Structure (SMILES) | Setaria viridis (Efficacy in %) [%]
Cn1c(C(F)(F)F)cc(=O)n(-c2cc(SCC(C)(C)C(=O)OCC3CCCO3)c(Cl)cc2F)c1=O (stereo not shown) [I.48-71] | 100

The compounds below were run on Veronica persica in the same assay as above. Conditions: application rate 320 g/ha.
Type: in vivo
How it was run: as §2

Structure (SMILES) | Veronica persica (Efficacy in %) [%]
Cn1c(C(F)(F)F)cc(=O)n(-c2cc(SCC(C)(C)C(=O)OCC3CCCO3)c(Cl)cc2F)c1=O (stereo not shown) [I.48-71] | 100

Each compound was assayed on Avena fatua in the same assay as above. Conditions: application rate 320 g/ha.
Type: in vivo
How it was run: as §2

Structure (SMILES) | Avena fatua (Efficacy in %) [%]
Cn1c(C(F)(F)F)cc(=O)n(-c2cc(SCC(C)(C)C(=O)OCC3CCCO3)c(Cl)cc2F)c1=O (stereo not shown) [I.48-71] | 80

These compounds were tested on Abutilon theophrasti in the same assay as above. Conditions: application rate 320 g/ha, scored after about 3 weeks.
Type: in vivo
How it was run: as §2

Structure (SMILES) | Abutilon theophrasti (Efficacy in %) [%]
Cn1c(C(F)(F)F)cc(=O)n(-c2cc(SCC(C)(C)C(=O)OCC3CCCO3)c(Cl)cc2F)c1=O (stereo not shown) [I.48-71] | 100

These compounds were tested on Matricaria inodora in the same assay as above. Conditions: application rate 320 g/ha, scored after about 3 weeks.
Type: in vivo
How it was run: as §2

Structure (SMILES) | Matricaria inodora (Efficacy in %) [%]
Cn1c(C(F)(F)F)cc(=O)n(-c2cc(SCC(C)(C)C(=O)OCC3CCCO3)c(Cl)cc2F)c1=O (stereo not shown) [I.48-71] | 100

The compounds below were run on Echinochloa crus-galli in the same assay as above. Conditions: application rate 320 g/ha, scored after about 3 weeks.
Type: in vivo
How it was run: as §2

Structure (SMILES) | Echinochloa crus-galli (Efficacy in %) [%]
Cn1c(C(F)(F)F)cc(=O)n(-c2cc(SCC(C)(C)C(=O)OCC3CCCO3)c(Cl)cc2F)c1=O (stereo not shown) [I.48-71] | 100

Each compound was assayed on Viola tricolor in the same assay as above. Conditions: application rate 320 g/ha, scored after about 3 weeks.
Type: in vivo
How it was run: as §2

Structure (SMILES) | Viola tricolor (Efficacy in %) [%]
Cn1c(C(F)(F)F)cc(=O)n(-c2cc(SCC(C)(C)C(=O)OCC3CCCO3)c(Cl)cc2F)c1=O (stereo not shown) [I.48-71] | 100

The compounds below were run on Alopecurus myosuroides in the same assay as above. Conditions: application rate 320 g/ha, scored after about 3 weeks.
Type: in vivo
How it was run: as §2

Structure (SMILES) | Alopecurus myosuroides (Efficacy in %) [%]
Cn1c(C(F)(F)F)cc(=O)n(-c2cc(SCC(C)(C)C(=O)OCC3CCCO3)c(Cl)cc2F)c1=O (stereo not shown) [I.48-71] | 100

What follows are compounds tested on Lolium rigidum in the same assay as above. Conditions: application rate 320 g/ha.
Type: in vivo
How it was run: as §2

Structure (SMILES) | Lolium rigidum (Efficacy in %) [%]
Cn1c(C(F)(F)F)cc(=O)n(-c2cc(SCC(C)(C)C(=O)OCC3CCCO3)c(Cl)cc2F)c1=O (stereo not shown) [I.48-71] | 90

The compounds below were run on Digitaria sanguinalis in the same assay as above. Conditions: application rate 80 g/ha.
Type: in vivo
How it was run: as §2

Structure (SMILES) | Digitaria sanguinalis (Efficacy in %) [%]
Cn1c(C(F)(F)F)cc(=O)n(-c2cc(SCC(C)(C)C(=O)OCC3CCCO3)c(Cl)cc2F)c1=O (stereo not shown) [I.48-71] | 100

The compounds below were run on Stellaria media in the same assay as above. Conditions: application rate 320 g/ha, scored after about 3 weeks.
Type: in vivo
How it was run: as §2

Structure (SMILES) | Stellaria media (Efficacy in %) [%]
Cn1c(C(F)(F)F)cc(=O)n(-c2cc(SCC(C)(C)C(=O)OCC3CCCO3)c(Cl)cc2F)c1=O (stereo not shown) [I.48-71] | 100

The compounds below were run on Pharbitis purpurea in the same assay as above. Conditions: application rate 320 g/ha.
Type: in vivo
How it was run: as §2

Structure (SMILES) | Pharbitis purpurea (Efficacy in %) [%]
Cn1c(C(F)(F)F)cc(=O)n(-c2cc(SCC(C)(C)C(=O)OCC3CCCO3)c(Cl)cc2F)c1=O (stereo not shown) [I.48-71] | 100

What follows are compounds tested on Triticum aestivum (assay: Crop compatibility post-emergence (greenhouse pot trial)). Conditions: application rate 20 g/ha.
Type: in vivo
How it was run: (§3)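 Greenhouse pot trial: sandy loam, sown seeds, treatment at one-leaf stage 2–3 wk after sowing. Spray: aqueous WP/EC preparation, 0.5% additive, 600 L/ha. Readout: visual % effect after ~3 wk relative to untreated plants.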

Triticum aestivum (Efficacy in %) [%] | Structure (SMILES)
20 | Cn1c(C(F)(F)F)cc(=O)n(-c2cc(SCC(C)(C)C(=O)OCC3CCCO3)c(Cl)cc2F)c1=O (stereo not shown) [I.48-71]

What follows are compounds tested on Oryza sativa in the same assay as above. Conditions: application rate 20 g/ha.
Type: in vivo
How it was run: as §3

Oryza sativa (Efficacy in %) [%] | Structure (SMILES)
20 | Cn1c(C(F)(F)F)cc(=O)n(-c2cc(SCC(C)(C)C(=O)OCC3CCCO3)c(Cl)cc2F)c1=O (stereo not shown) [I.48-71]

Each compound was assayed on Amaranthus retroflexus (assay: Herbicidal action post-emergence (greenhouse pot trial)). Conditions: application rate 80 g/ha, scored visually after about 3 weeks vs untreated controls.
Type: in vivo
How it was run: (§4)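 Sowing in sandy loam, then 2–3 weeks of controlled greenhouse growth. Next, one-leaf-stage plants received a foliar spray of the WP- or EC-formulated compound with 0.5% additive (600 L/ha water, application rate of 80 g/ha or below). Finally, after about 3 weeks under optimal conditions, effect was judged by eye against controls.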

Structure (SMILES) | Amaranthus retroflexus (Efficacy in %) [%]
Cn1c(C(F)(F)F)cc(=O)n(-c2cc(SCC(C)(C)C(=O)OCC3CCCO3)c(Cl)cc2F)c1=O (stereo not shown) [I.48-71] | 100

The compounds below were run on Setaria viridis in the same assay as above. Conditions: application rate 80 g/ha, scored visually after about 3 weeks vs untreated controls.
Type: in vivo
How it was run: as §4

Structure (SMILES) | Setaria viridis (Efficacy in %) [%]
Cn1c(C(F)(F)F)cc(=O)n(-c2cc(SCC(C)(C)C(=O)OCC3CCCO3)c(Cl)cc2F)c1=O (stereo not shown) [I.48-71] | 100

These compounds were tested on Veronica persica in the same assay as above. Conditions: application rate 80 g/ha.
Type: in vivo
How it was run: as §4

Structure (SMILES) | Veronica persica (Efficacy in %) [%]
Cn1c(C(F)(F)F)cc(=O)n(-c2cc(SCC(C)(C)C(=O)OCC3CCCO3)c(Cl)cc2F)c1=O (stereo not shown) [I.48-71] | 100

The compounds below were run on Abutilon theophrasti in the same assay as above. Conditions: application rate 80 g/ha, scored visually after about 3 weeks vs untreated controls.
Type: in vivo
How it was run: as §4

Structure (SMILES) | Abutilon theophrasti (Efficacy in %) [%]
Cn1c(C(F)(F)F)cc(=O)n(-c2cc(SCC(C)(C)C(=O)OCC3CCCO3)c(Cl)cc2F)c1=O (stereo not shown) [I.48-71] | 100

Each compound was assayed on Polygonum convolvulus in the same assay as above. Conditions: application rate 80 g/ha, scored visually after about 3 weeks vs untreated controls.
Type: in vivo
How it was run: as §4

Structure (SMILES) | Polygonum convolvulus (Efficacy in %) [%]
Cn1c(C(F)(F)F)cc(=O)n(-c2cc(SCC(C)(C)C(=O)OCC3CCCO3)c(Cl)cc2F)c1=O (stereo not shown) [I.48-71] | 100

What follows are compounds tested on Matricaria inodora in the same assay as above. Conditions: application rate 80 g/ha, scored visually after about 3 weeks vs untreated controls.
Type: in vivo
How it was run: as §4

Structure (SMILES) | Matricaria inodora (Efficacy in %) [%]
Cn1c(C(F)(F)F)cc(=O)n(-c2cc(SCC(C)(C)C(=O)OCC3CCCO3)c(Cl)cc2F)c1=O (stereo not shown) [I.48-71] | 100

What follows are compounds tested on Echinochloa crus-galli in the same assay as above. Conditions: application rate 80 g/ha, scored visually after about 3 weeks vs untreated controls.
Type: in vivo
How it was run: as §4

Structure (SMILES) | Echinochloa crus-galli (Efficacy in %) [%]
Cn1c(C(F)(F)F)cc(=O)n(-c2cc(SCC(C)(C)C(=O)OCC3CCCO3)c(Cl)cc2F)c1=O (stereo not shown) [I.48-71] | 100

What follows are compounds tested on Viola tricolor in the same assay as above. Conditions: application rate 80 g/ha.
Type: in vivo
How it was run: as §4

Structure (SMILES) | Viola tricolor (Efficacy in %) [%]
Cn1c(C(F)(F)F)cc(=O)n(-c2cc(SCC(C)(C)C(=O)OCC3CCCO3)c(Cl)cc2F)c1=O (stereo not shown) [I.48-71] | 100

These compounds were tested on Hordeum murinum in the same assay as above. Conditions: application rate 80 g/ha, scored visually after about 3 weeks vs untreated controls.
Type: in vivo
How it was run: as §4

Structure (SMILES) | Hordeum murinum (Efficacy in %) [%]
Cn1c(C(F)(F)F)cc(=O)n(-c2cc(SCC(C)(C)C(=O)OCC3CCCO3)c(Cl)cc2F)c1=O (stereo not shown) [I.48-71] | 80

The compounds below were run on Alopecurus myosuroides in the same assay as above. Conditions: application rate 80 g/ha, scored visually after about 3 weeks vs untreated controls.
Type: in vivo
How it was run: as §4

Structure (SMILES) | Alopecurus myosuroides (Efficacy in %) [%]
Cn1c(C(F)(F)F)cc(=O)n(-c2cc(SCC(C)(C)C(=O)OCC3CCCO3)c(Cl)cc2F)c1=O (stereo not shown) [I.48-71] | 90

Each compound was assayed on Lolium rigidum in the same assay as above. Conditions: application rate 80 g/ha, scored visually after about 3 weeks vs untreated controls.
Type: in vivo
How it was run: as §4

Structure (SMILES) | Lolium rigidum (Efficacy in %) [%]
Cn1c(C(F)(F)F)cc(=O)n(-c2cc(SCC(C)(C)C(=O)OCC3CCCO3)c(Cl)cc2F)c1=O (stereo not shown) [I.48-71] | 80

These compounds were tested on Digitaria sanguinalis in the same assay as above. Conditions: application rate 80 g/ha.
Type: in vivo
How it was run: as §4

Structure (SMILES) | Digitaria sanguinalis (Efficacy in %) [%]
Cn1c(C(F)(F)F)cc(=O)n(-c2cc(SCC(C)(C)C(=O)OCC3CCCO3)c(Cl)cc2F)c1=O (stereo not shown) [I.48-71] | 100

The compounds below were run on Stellaria media in the same assay as above. Conditions: application rate 80 g/ha, scored visually after about 3 weeks vs untreated controls.
Type: in vivo
How it was run: as §4

Structure (SMILES) | Stellaria media (Efficacy in %) [%]
Cn1c(C(F)(F)F)cc(=O)n(-c2cc(SCC(C)(C)C(=O)OCC3CCCO3)c(Cl)cc2F)c1=O (stereo not shown) [I.48-71] | 100

These compounds were tested on Pharbitis purpurea in the same assay as above. Conditions: application rate 80 g/ha.
Type: in vivo
How it was run: as §4

Structure (SMILES) | Pharbitis purpurea (Efficacy in %) [%]
Cn1c(C(F)(F)F)cc(=O)n(-c2cc(SCC(C)(C)C(=O)OCC3CCCO3)c(Cl)cc2F)c1=O (stereo not shown) [I.48-71] | 100

— patent US11497212B2, “Substituted thiophenyl uracils, salts thereof and the use thereof as herbicidal agents” (Syngenta Crop Protection AG, priority 2017, dated 2022)
